Tested on: guinea pig lung mast cells
Assay: Histamine release from passively sensitized (anti-OVA antibody) lung mast cells activated by OVA
Format: cell-based
Conditions: for Histamine (%) (amount of histamine released as percentage of the total histamine content) / inhibition % of histamine release: 4 × 10^5 mast cells, added 5 min before 1.0 μg/ml OVA challenge; for inhibition % of histamine release: vs OVA alone
Experimental: In each enzyme treatment, the lung tissues were filtered with nylon mesh and metal mesh (100 μm), and centrifuged (called as monodispersed mast cells). Pellets were suspended in 16 ml of buffer (TG buffer) containing Ca^2+, Mg^2+-free, and 0.1% gelatin, loaded to rough Percoll ([…] density), and centrifuged at 1,400 rpm for 25 minutes to give pellets. The cells were suspended again in 8 ml of TG buffer, loaded to discontinuous Percoll ([…] density), and centrifuged again at 1400 rpm for 25 minutes to afford various kinds of cell layers. Among them, mast cells were mainly present in 3rd or 4th layer, and so cells obtained from these layers were washed with TGCM buffer twice. […] Mast cells (4×10^5 cells) were treated with guinea pig IgG1 antibody (anti-OVA 1 ml/10^6 cells), reacted at 37° C. for 45 minutes, and then washed with TGCM buffer to remove anti-OVA antibody which was not bound to mast cells membrane. The cells were suspended in 1 ml of TGCM buffer, and treated with drug (testing substance) at each concentration for 5 minutes. The suspension was […] with 1.0 μg/ml OVA (ovalbumin), reacted for 10 minutes, cooled at ice, and centrifuged. After the centrifuge, histamine in supernatant was measured. […] The amount of histamine contained in each sample was calculated as percentage against the amount of histamine contained in total cells used, as follows. [formula]

O=c1cc(-c2ccc(O)c(O)c2)oc2cc(O)c([C@@H]3O[C@H](CO)[C@@H](O)[C@H](O)[C@H]3O)c(O)c12 [Isoorientin, isoorientin]
IC50 (Cavia porcellus, Mast cell, guinea pig lung mast cells, anti-OVA sensitized, OVA challenge, read-out: IC50 value, inhibition of histamine release in mast cells): 30 µg/mL | Histamine (%) (amount of histamine released as percentage of the total histamine content) (sample 1.25 μg): 27.9 ± 2.62% | inhibition % of histamine release (sample 1.25 μg): 14% | Histamine (%) (amount of histamine released as percentage of the total histamine content) (sample 2.5 μg): 25.6 ± 1.49% | inhibition % of histamine release (sample 2.5 μg): 21.3% | Histamine (%) (amount of histamine released as percentage of the total histamine content) (sample 5 μg): 21.9 ± 2.01% | inhibition % of histamine release (sample 5 μg): 32.6% | Histamine (%) (amount of histamine released as percentage of the total histamine content) (sample 10 μg): 17.2 ± 1.07% | inhibition % of histamine release (sample 10 μg): 47.2%
